Measurements taken from patent US20130102591A1, “COMPOSITIONS AND METHODS FOR PREVENTION AND TREATMENT OF PULMONARY HYPERTENSION” (priority 2010, published 2013).
“Also recorded” adds a separate entry of the source.

What was measured:
[1] = tested on: MCT-induced pulmonary hypertension; conditions: reported in the literature; cited from earlier work
[2] = Tolerability during 10-day dosing in MCT rats (body weight, activity level); format: in vivo, Sprague-Dawley rats
Procedure: (§1) Adult male Sprague-Dawley rats (250-350 g) (3 groups; n=5 per group) were treated with a single subcutaneous injection of monocrotaline (MCT; 60 mg/kg), a plant poison that induces a well-characterized experimental model of pulmonary hypertension, or an equivalent volume of saline (2 ml/kg; control). […] At the conclusion of the 10-day dosing period, rats were anesthetized and instrumented, and resting hemodynamic indices were recorded.

[3] = Solubility in solvents and aqueous liquids
[4] = tested on: MCT-induced pulmonary hypertension; assay: Mean pulmonary arterial pressure in the monocrotaline (MCT) rat pulmonary hypertension model; format: in vivo, Sprague-Dawley rats; conditions: 10 days of therapy starting 38 days after MCT
Procedure: as §1
Rats were anesthetized with intramuscular ketamine (90 mg/kg) and pentobarbital sodium (15 mg/kg). The trachea was exposed and cannulated with a plastic tube that was connected to a Harvard ventilator. The animals were ventilated with room air at a tidal volume of 1.5 ml at a rate of 100 breaths/minute. A polyethylene catheter (PE-50) was inserted into the right carotid artery to measure the mean systemic arterial pressure (SAP). A polyvinyl (PV-1) catheter was inserted through the right jugular vein via the right atrium and ventricle into the pulmonary artery for measurement of the mean pulmonary arterial pressure (MPAP).

[5] = tested on: MCT-induced histological alterations in the lung; assay: Lung histology (optical microscopy) in the MCT rat pulmonary hypertension model; format: in vivo, Sprague-Dawley rats; conditions: for Fibrosis score: 10 days starting 38 days after MCT; for Effect on histological lung injury (alveolar damage, inflammatory cell infiltrate, vascular smooth muscle hypertrophy), in words: groups 3 and 4 versus vehicle control (group 2)
Procedure: as §1
The lower lobe of the right lung was fixed with formalin solution. After paraffin embedding, […] sections were stained with haematoxylin and eosin and observed in a Dialux 22 Leitz (Wetziar, Germany) microscope. The score of lung fibrosis was assessed on sections stained with Masson Trichrome staining. For morphometric evaluations, all three lobes of right lung were inspected. […] Results are expressed as the percentage of vessels presenting indices of disease relative to the total number of vessels counted in the sections.

[6] = listed as 3-nitratomethyl-2,2,5,5-tetramethylpyrrolidinyloxy
[7] = Group 3: MCT + compound 1a, 1.5 mg/kg/day BID, IP
[8] = Group 4: MCT + compound 1a, 2 mg/kg/day BID, PO

Q: For `COc1ccccc1Oc1c(NS(=O)(=O)c2ccc(C(C)(C)C)cc2)nc(-c2ncccn2)nc1OCCO` [bosentan], which “Effect in the same rodent model with comparably delayed initiation of therapy” value [1] is on record?
A: Its value is “no effect”.

Q: What does the source list for `CC1(C)CC(CO[N+](=O)[O-])C(C)(C)N1[O]` (centres unmarked) [compound 1a, 3-nitratomethyl-2,2,5,5-tetramethylpyrrolidinyloxy]?
A: Effect on body weight or activity level [2]: absence of any effect; Tolerability [2]: well tolerated; Solubility in ethyl acetate and dimethylsulfoxide (DMSO) [3]: soluble; Solubility in non-toxic aqueous liquids suitable for human administration ([3]; water, saline, dextrose solution, polyethylene glycol): insoluble; Effect on elevation of pulmonary (arterial) hypertension, in words [4]: highly effective; also recorded: significantly reduced; Effect on elevation of pulmonary (arterial) hypertension, in words [4, 6]: significantly reduced; Protection by chronic oral (enteral) treatment compared with IP treatment ([5]; 2 mg/kg/day PO versus 1.5 mg/kg/day BID IP): slightly more protective; Alveolar damage [5, 7]: 0.50 ± 0.35; Angioedema score [5, 7]: 10.00 ± 8.86 percentage of vessels; Muscolaris thickening score [5, 7]: 0.00 ± 0.00 percentage of vessels; Perivascular infiltrate score [5, 7]: 5.95 ± 5.71 percentage of vessels; Fibrosis score [5, 7]: 0.80 ± 0.57; Alveolar damage [5, 8]: 0.70 ± 0.45; Angioedema score [5, 8]: 7.00 ± 2.78 percentage of vessels; Muscolaris thickening score [5, 8]: 0.00 ± 0.00 percentage of vessels; Perivascular infiltrate score [5, 8]: 6.06 ± 2.44 percentage of vessels; Fibrosis score [5, 8]: 1.00 ± 0.79; Effect on histological lung injury (alveolar damage, inflammatory cell infiltrate, vascular smooth muscle hypertrophy), in words [5]: significantly reduced; also recorded: remarkably reduced; Effect on histological lung injury (alveolar damage, inflammatory cell infiltrate, vascular smooth muscle hypertrophy), in words [5, 6]: significantly reduced
